Results: paper PMC11459923, “Identification of novel and potent inhibitors of SARS-CoV-2 main protease from DNA-encoded chemical libraries” (Antimicrobial Agents and Chemotherapy, 2024)

Target: SARS-CoV-2 M^pro (Severe acute respiratory syndrome coronavirus 2, UniProt P0DTD1)
Assay: In vitro FRET enzymatic assay (screening at 1 µM and SAR IC50)
Assay type: biochemical
Settings: for inhibition at 1 µM: read-out: M^pro inhibition % (comp. conc. 1 µM)

| Compound | inhibition at 1 µM [%] | M^pro inhibition % (comp. conc. 1 µM) [%] | IC50 (IC50 M^pro) [nM] | IC50 (IC50 ± SEM) [nM] |
| --- | --- | --- | --- | --- |
| O=Cc1cccc(C(=O)N[C@H](CC2CCC2)C(=O)N[C@H](CC(=O)N[C@H](Cc2ccncc2)C(=O)O)Cc2c[nH]c3ccccc23)c1 [MP7] | 100 | – | – | – |
| CC(=O)c1cccc(C(=O)N[C@H](CC2CCC2)C(=O)N[C@H](CC(=O)N[C@H](Cc2ccncc2)C(=O)O)Cc2c[nH]c3ccccc23)c1 [MP8] | ~18 | 18.2 | – | – |
| CCCC[C@@H](NC(=O)c1ccnc(C#N)c1)C(=O)N[C@H](CC(=O)N[C@H](Cc1ccncc1)C(=O)O)Cc1c[nH]c2ccccc12 [MP9] | 86.6 | – | – | – |
| N#Cc1cc(C(=O)N[C@H](CC2CCC2)C(=O)N[C@H](CC(=O)N[C@H](Cc2ccncc2)C(=O)NCc2cccc(Cl)c2)Cc2c[nH]c3ccccc23)ccn1 [MP15] | 66.8 | – | – | – |
| N#Cc1cc(C(=O)N[C@H](CC2CCC2)C(=O)N[C@H](CC(=O)N[C@H](Cc2ccncc2)C(=O)NCCc2c[nH]c3ccccc23)Cc2c[nH]c3ccccc23)ccn1 [MP16] | 94.7 | – | 47 | 33 ± 3 |
| N#Cc1cc(C(=O)N[C@H](CC2CCC2)C(=O)N[C@H](CC(=O)N[C@H](Cc2ccccc2)C(=O)O)Cc2c[nH]c3ccccc23)ccn1 [MP3] | ~30 | 30.4 | – | – |
| N#Cc1cc(C(=O)N[C@H](CC2CCC2)C(=O)N[C@H](CC(=O)N[C@H](Cc2ccncc2)C(=O)NCc2ccccn2)Cc2c[nH]c3ccccc23)ccn1 [MP14] | 98.2 | – | – | 45 ± 9 |
| N#Cc1cc(C(=O)N[C@H](Cc2ccc(Cl)c(Cl)c2)C(=O)N[C@H](CC(=O)N[C@H](Cc2ccncc2)C(=O)O)Cc2c[nH]c3ccccc23)ccn1 [MP11] | 90.7 | – | – | 69 ± 4 |
| N#Cc1cccc(C(=O)N[C@H](CC2CCC2)C(=O)N[C@H](CC(=O)N[C@H](Cc2ccncc2)C(=O)O)Cc2c[nH]c3ccccc23)c1 [MP6] | ~18 | 17.8 | – | – |
| N#Cc1cc(C(=O)N[C@H](CC2CCC2)C(=O)N[C@H](CC(=O)N[C@H](Cc2ccc(Cl)cc2)C(=O)O)Cc2c[nH]c3ccccc23)ccn1 [MP4] | ~30 | – | – | – |
| N#Cc1cc(C(=O)N[C@H](CC2CCC2)C(=O)N[C@H](CC(=O)N[C@H](Cc2ccncc2)C(=O)NCc2ccccc2)Cc2c[nH]c3ccccc23)ccn1 [MP12] | 96.5 | – | – | – |
| N#Cc1cc(C(=O)N[C@H](CC2CCC2)C(=O)N[C@H](CC(=O)N[C@H](Cc2ccncc2)C(=O)O)Cc2c[nH]c3ccccc23)ccn1 [MP1] | 97 | – | – | – |
| N#Cc1cc(C(=O)N[C@H](CC2CCC2)C(=O)N[C@H](CC(=O)N[C@H](Cc2ccncc2)C(=O)NCCN2CCOCC2)Cc2c[nH]c3ccccc23)ccn1 [MP13] | 94.2 | – | – | 47 ± 6 |
| N#Cc1cc(C(=O)N[C@H](Cc2ccc(Cl)cc2)C(=O)N[C@H](CC(=O)N[C@H](Cc2ccncc2)C(=O)O)Cc2c[nH]c3ccccc23)ccn1 [MP10] | 95.7 | – | – | 71 ± 7 |
| N#Cc1cc(C(=O)N[C@H](CC2CCC2)C(=O)NCCC(=O)N[C@H](Cc2ccncc2)C(=O)O)ccn1 [MP5] | ~8 | 8.1 | – | – |
| N#Cc1cc(C(=O)N[C@H](CC2CCC2)C(=O)N[C@H](CC(=O)O)Cc2c[nH]c3ccccc23)ccn1 [MP2] | ~2 | 2.2 | – | – |
